US20200216439A1, “HETERO-1,5,6,7-TETRAHYDRO-4H-INDOL-4-ONES” (BAYER PHARMA AKTIENGESELLSCHAFT, priority 2015, published 2020)

Target: T1, catalytic domain of human Bub1 (amino acids 704-1085) (Homo sapiens, UniProt O43683)
T1 construct: catalytic domain of human Bub1 (amino acids 704-1085); His6 (N); made in house; host or cells: Hi5 insect cells
Experiment: Bub1 kinase assay (TR-FRET)
Type: biochemical
Details: TR-FRET; ATP 10 μM, peptide substrate 1 μM; 60 min at 22° C.; average or median if tested more than once; read-out: Inhibition of Bub1 kinase IC50
In short: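 Human Bub1 catalytic domain (704-1085, His6-tagged, Hi5-expressed, ~200 ng/mL) preincubated with compound 15 min at 22 °C, then reacted 60 min at 22 °C with 10 μM ATP and 1 μM biotinylated peptide substrate, pH 7.5. EDTA stop; TR-FRET 665/620 ratio; IC50 from 4-parameter fit, 11 concentrations in duplicate.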

T1 sequence (O43683 704-1085): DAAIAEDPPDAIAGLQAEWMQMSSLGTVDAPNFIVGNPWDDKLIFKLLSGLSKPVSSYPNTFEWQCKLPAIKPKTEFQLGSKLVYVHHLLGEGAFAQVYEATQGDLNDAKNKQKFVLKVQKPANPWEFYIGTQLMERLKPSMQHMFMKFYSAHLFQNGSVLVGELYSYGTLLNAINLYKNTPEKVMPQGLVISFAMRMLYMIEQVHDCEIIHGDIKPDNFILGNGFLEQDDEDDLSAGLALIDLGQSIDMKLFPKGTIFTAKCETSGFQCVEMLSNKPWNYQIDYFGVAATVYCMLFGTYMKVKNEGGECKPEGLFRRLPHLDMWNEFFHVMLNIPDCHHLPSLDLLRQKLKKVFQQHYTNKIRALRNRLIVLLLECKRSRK

IC50 [nM]	SMILES
5	CNC(=O)N1CC(=O)c2c([nH]c(-c3ccnc(NC(C)=O)c3)c2Nc2ccccc2)C1 [Example 168, 2-(2-Acetamidopyridin-4-yl)-3-anilino-N-methyl-4-oxo-1,4,5,7-tetrahydro-6H-pyrrolo[2,3-c]pyridine-6-carboxamide]
5	CC(=O)Nc1cc(-c2[nH]c3c(c2Nc2ccccc2)C(=O)CN(C(=O)C(C)C)C3)ccn1 [Example 170, N-[4-(3-Anilino-6-isobutyryl-4-oxo-4,5,6,7-tetrahydro-1H-pyrrolo[2,3-c]pyridin-2-yl)pyridin-2-yl]acetamide]
3	CC(=O)Nc1cc(-c2[nH]c3c(c2Nc2ccccc2)C(=O)CN(S(=O)(=O)C(C)C)C3)ccn1 [Example 171, N-{4-[3-Anilino-6-(isopropylsulfonyl)-4-oxo-4,5,6,7-tetrahydro-1H-pyrrolo[2,3-c]pyridin-2-yl]pyridin-2-yl}acetamide]
5	CC(=O)Nc1cc(-c2[nH]c3c(c2Nc2ccccc2)C(=O)CN(S(=O)(=O)C2CC2)C3)ccn1 [Example 172]
6	CC(=O)Nc1cc(-c2[nH]c3c(c2Nc2ccccc2)C(=O)CN(S(=O)(=O)C2CCOCC2)C3)ccn1 [Example 173, N-{4-[3-Anilino-4-oxo-6-(tetrahydro-2H-pyran-4-ylsulfonyl)-4,5,6,7-tetrahydro-1H-pyrrolo[2,3-c]pyridin-2-yl]pyridin-2-yl}acetamide]
5	CCC(=O)N1CC(=O)c2c([nH]c(-c3ccnc(NC(C)=O)c3)c2Nc2ccccc2)C1 [Example 180, N-[4-(3-Anilino-4-oxo-6-propionyl-4,5,6,7-tetrahydro-1H-pyrrolo[2,3-c]pyridin-2-yl)pyridin-2-yl]acetamide]
4	CC(=O)Nc1cc(-c2[nH]c3c(c2Nc2ccccc2)C(=O)CN(S(=O)(=O)CCC(F)(F)F)C3)ccn1 [Example 182, N-(4-{3-Anilino-4-oxo-6-[(3,3,3-trifluoropropyl)sulfonyl]-4,5,6,7-tetrahydro-1H-pyrrolo[2,3-c]pyridin-2-yl}pyridin-2-yl)acetamide]
14	CC(=O)Nc1cc(-c2[nH]c3c(c2Nc2ccccc2)C(=O)CN(C(=O)OC(C)C)C3)ccn1 [Example 185, Isopropyl 2-(2-acetamidopyridin-4-yl)-3-anilino-4-oxo-1,4,5,7-tetrahydro-6H-pyrrolo[2,3-c]pyridine-6-carboxylate]
3	CC(=O)Nc1cc(-c2[nH]c3c(c2Nc2ccccc2)C(=O)CN(C(=O)N(C)C(C)C)C3)ccn1 [Example 186, 2-(2-Acetamidopyridin-4-yl)-3-anilino-N-isopropyl-N-methyl-4-oxo-1,4,5,7-tetrahydro-6H-pyrrolo[2,3-c]pyridine-6-carboxamide]
4	CC(=O)Nc1cc(-c2[nH]c3c(c2Nc2ccccc2)C(=O)CN(S(=O)(=O)CCO)C3)ccn1 [Example 188, N-(4-{3-Anilino-6-[(2-hydroxyethyl)sulfonyl]-4-oxo-4,5,6,7-tetrahydro-1H-pyrrolo[2,3-c]pyridin-2-yl}pyridin-2-yl)acetamide]

The remaining lines, values behind:

SMILES	IC50 [nM]
CCN(CC)C(=O)N1CC(=O)c2c([nH]c(-c3ccnc(NC(C)=O)c3)c2Nc2ccccc2)C1 [Example 167, 2-(2-Acetamidopyridin-4-yl)-3-anilino-N,N-diethyl-4-oxo-1,4,5,7-tetrahydro-6H-pyrrolo[2,3-c]pyridine-6-carboxamide]	6
CC(=O)Nc1cc(-c2[nH]c3c(c2Nc2ccccc2)C(=O)CN(C(=O)CC(F)(F)F)C3)ccn1 [Example 169, N-{4-[3-Anilino-4-oxo-6-(3,3,3-trifluoropropanoyl)-4,5,6,7-tetrahydro-1H-pyrrolo[2,3-c]pyridin-2-yl]pyridin-2-yl}acetamide]	5
CC(=O)Nc1cc(-c2[nH]c3c(c2Nc2ccccc2)C(=O)CN(C(=O)CC(C)(C)C)C3)ccn1 [Example 174, N-{4-[3-Anilino-6-(3,3-dimethylbutanoyl)-4-oxo-4,5,6,7-tetrahydro-1H-pyrrolo[2,3-c]pyridin-2-yl]pyridin-2-yl}acetamide]	8
CC(=O)Nc1cc(-c2[nH]c3c(c2Nc2ccccc2)C(=O)CN(C(=O)c2cncs2)C3)ccn1 [Example 175, N-{4-[3-Anilino-4-oxo-6-(1,3-thiazol-5-ylcarbonyl)-4,5,6,7-tetrahydro-1H-pyrrolo[2,3-c]pyridin-2-yl]pyridin-2-yl}acetamide]	8
CC(=O)Nc1cc(-c2[nH]c3c(c2Nc2ccccc2)C(=O)CN(C(=O)c2cnco2)C3)ccn1 [Example 176, N-{4-[3-Anilino-6-(1,3-oxazol-5-ylcarbonyl)-4-oxo-4,5,6,7-tetrahydro-1H-pyrrolo[2,3-c]pyridin-2-yl]pyridin-2-yl}acetamide]	16
CC(=O)Nc1cc(-c2[nH]c3c(c2Nc2ccccc2)C(=O)CN(C(=O)CC(C)(C)O)C3)ccn1 [Example 177, N-{4-[3-Anilino-6-(3-hydroxy-3-methylbutanoyl)-4-oxo-4,5,6,7-tetrahydro-1H-pyrrolo[2,3-c]pyridin-2-yl]pyridin-2-yl}acetamide]	23
CC(=O)Nc1cc(-c2[nH]c3c(c2Nc2ccccc2)C(=O)CN(C(=O)CCC(C)(C)C)C3)ccn1 [Example 179, N-{4-[3-Anilino-6-(4,4-dimethylpentanoyl)-4-oxo-4,5,6,7-tetrahydro-1H-pyrrolo[2,3-c]pyridin-2-yl]pyridin-2-yl}acetamide]	63
CC(=O)Nc1cc(-c2[nH]c3c(c2Nc2ccccc2)C(=O)CN(C(=O)C(C)(C)C)C3)ccn1 [Example 181, N-{4-[3-Anilino-6-(2,2-dimethylpropanoyl)-4-oxo-4,5,6,7-tetrahydro-1H-pyrrolo[2,3-c]pyridin-2-yl]pyridin-2-yl}acetamide]	5
CCOC(=O)N1CC(=O)c2c([nH]c(-c3ccnc(NC(C)=O)c3)c2Nc2ccccc2)C1 [Example 183, Ethyl 2-(2-acetamidopyridin-4-yl)-3-anilino-4-oxo-1,4,5,7-tetrahydro-6H-pyrrolo[2,3-c]pyridine-6-carboxylate]	9
CC(=O)Nc1cc(-c2[nH]c3c(c2Nc2ccccc2)C(=O)CN(C(=O)OCCF)C3)ccn1 [Example 184, 2-Fluoroethyl 2-(2-acetamidopyridin-4-yl)-3-anilino-4-oxo-1,4,5,7-tetrahydro-6H-pyrrolo[2,3-c]pyridine-6-carboxylate]	8
CCCN(C)C(=O)N1CC(=O)c2c([nH]c(-c3ccnc(NC(C)=O)c3)c2Nc2ccccc2)C1 [Example 187, 2-(2-Acetamidopyridin-4-yl)-3-anilino-N-methyl-4-oxo-N-propyl-1,4,5,7-tetrahydro-6H-pyrrolo[2,3-c]pyridine-6-carboxamide]	3
CC(=O)Nc1cc(-c2[nH]c3c(c2Nc2ccccc2)C(=O)CN(C(=O)CCO)C3)ccn1 [Example 189]	16
CC(=O)Nc1cc(-c2[nH]c3c(c2Nc2ccccc2)C(=O)CN(C(=O)CCC(F)(F)F)C3)ccn1 [Example 190, N-{4-[3-Anilino-4-oxo-6-(4,4,4-trifluorobutanoyl)-4,5,6,7-tetrahydro-1H-pyrrolo[2,3-c]pyridin-2-yl]pyridin-2-yl}acetamide]	135
CC(=O)Nc1cc(-c2[nH]c3c(c2Nc2ccccc2)C(=O)CN(C(=O)C2CCN(C)CC2)C3)ccn1 [Example 191, N-(4-{3-Anilino-6-[(1-methylpiperidin-4-yl)carbonyl]-4-oxo-4,5,6,7-tetrahydro-1H-pyrrolo[2,3-c]pyridin-2-yl}pyridin-2-yl)acetamide]	143
